According to US20240158446A1, “CYCLIC COMPOUND HAVING SELECTIVE INHIBITORY ACTION ON KRAS OVER HRAS AND NRAS” (CHUGAI SEIYAKU KABUSHIKI KAISHA, priority 2021, published 2024):
Read-outs that look alike come from different tables or passages of the source. Where a SMILES comes first, the peptide text is derived from it. Bridges are numbered along the chain shown (N, C = ends). [ ]: non-standard residue; d: D form. The star is where a group is joined. hPhe(3-Cl-4-CF3) = N[C@@H](CCc1ccc(C(F)(F)F)c(Cl)c1)C(=O)O; NPrPhe(4-CF3) = CCCN[C@@H](Cc1ccc(C(F)(F)F)cc1)C(=O)O; NMeGly(cPent) = CN[C@H](C(=O)O)C1CCCC1; NMeD = CN[C@@H](CC(=O)O)C(=O)O; NMeNva = CCC[C@H](NC)C(=O)O; Morpholide = C1CN(*)CCO1; Ac4c = NC1(C(=O)O)CCC1; NPrGly = CCCNCC(=O)O; Sar = CNCC(=O)O

How the values were obtained:
[1] = target: GDP-bound KRAS wild-type protein (Homo sapiens, UniProt P01116); experiment: Binding to KRAS by surface plasmon resonance (SPR), Single Cycle Kinetics; conditions: GDP-bound KRAS wild-type protein, read-out: KRAS KD
Sequence of GDP-bound KRAS wild-type protein (P01116 whole entry): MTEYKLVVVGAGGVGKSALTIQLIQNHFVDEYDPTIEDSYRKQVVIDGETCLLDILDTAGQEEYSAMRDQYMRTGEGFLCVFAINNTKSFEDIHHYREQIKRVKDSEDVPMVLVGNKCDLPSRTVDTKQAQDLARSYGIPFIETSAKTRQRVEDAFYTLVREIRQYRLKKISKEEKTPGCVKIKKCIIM

[2] = target: GDP-bound NRAS wild-type protein (Homo sapiens, UniProt P01111); experiment: Binding to NRAS by surface plasmon resonance (SPR), Single Cycle Kinetics; conditions: for NRAS/KRAS (ratio of KD value for NRAS to KD value for KRAS): GDP-bound NRAS wild-type protein vs GDP-bound KRAS wild-type protein; for NRAS/KRAS (ratio of KD value with respect to GDP-bound NRAS wild-type protein to KD value with respect to KRAS): SPR KD ratio NRAS/KRAS, class symbols
Sequence of GDP-bound NRAS wild-type protein (P01111 whole entry): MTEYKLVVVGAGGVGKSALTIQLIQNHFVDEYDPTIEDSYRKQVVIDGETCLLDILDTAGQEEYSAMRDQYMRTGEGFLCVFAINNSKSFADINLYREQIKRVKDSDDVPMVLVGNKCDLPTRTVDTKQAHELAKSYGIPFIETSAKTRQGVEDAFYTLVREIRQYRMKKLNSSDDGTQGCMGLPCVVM

[3] = target: GDP-bound HRAS wild-type protein (Homo sapiens, UniProt P01112); experiment: Binding to HRAS by surface plasmon resonance (SPR), Single Cycle Kinetics; conditions: for HRAS/KRAS (ratio of KD value for HRAS to KD value for KRAS): GDP-bound HRAS wild-type protein vs GDP-bound KRAS wild-type protein; for HRAS/KRAS (ratio of KD value with respect to GDP-bound HRAS wild-type protein to KD value with respect to KRAS): SPR KD ratio HRAS/KRAS, class symbols
Sequence of GDP-bound HRAS wild-type protein (P01112 whole entry): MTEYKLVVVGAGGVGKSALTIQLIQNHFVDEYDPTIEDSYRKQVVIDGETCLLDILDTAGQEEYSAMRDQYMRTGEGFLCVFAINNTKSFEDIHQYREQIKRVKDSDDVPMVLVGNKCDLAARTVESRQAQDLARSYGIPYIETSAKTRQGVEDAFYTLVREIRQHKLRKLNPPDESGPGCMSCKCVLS

[4] = tested on: human lung cancer strain NCI-H441;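 also: cell proliferation inhibition after four days measured by CellTiter-Glo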
[5] = SPR, Single Cycle Kinetics, 1:1 binding model
[6] = SPR Single Cycle Kinetics, 1:1 binding model

Kd [1, 5] [nM] | IC50 [4] [nM] | Kd ([1]; SPR, Single Cycle Kinetics) [nM] | SMILES | NRAS/KRAS (ratio of KD value for NRAS to KD value for KRAS) ([2]; SPR, KD ratio class) | HRAS/KRAS (ratio of KD value for HRAS to KD value for KRAS) ([3]; SPR, KD ratio class) | NRAS/KRAS (ratio of KD value for NRAS to KD value for KRAS) ([2]; SPR) | HRAS/KRAS (ratio of KD value for HRAS to KD value for KRAS) ([3]; SPR) | further results
0.2 | 12.3 |  | CCO[C@@H]1C[C@H]2C(=O)NC3(CCC3)C(=O)N(C)[C@@H](C3CCCC3)C(=O)N(C)[C@H](C(=O)N3CCOCC3)CC(=O)N(C)[C@@H](CC(C)C)C(=O)N[C@@H]([C@@H](C)CC)C(=O)N(C)CC(=O)N(C)[C@H]3C/C=C\CCN(C3=O)[C@@H](Cc3ccc(C(F)(F)F)cc3)C(=O)N(C)CC(=O)N[C@@H](CCc3cc(F)c(C(F)(F)F)c(F)c3)C(=O)N2C1 [PP1282] | A (a compound having 10 or more and less than 20 is denoted as A) | A (a compound having 10 or more and less than 20 is denoted as A) |  |  | 
 | 4.1 | 0.069 | CCO[C@@H]1C[C@H]2C(=O)NC3(CC(C)(C)C3)C(=O)N(C)[C@@H](C3CCCC3)C(=O)N(C)[C@H](C(=O)N(C)CC)CC(=O)N(C)[C@@H](COC)C(=O)N[C@@H]([C@@H](C)CC)C(=O)N(C)CC(=O)N(C)[C@H]3C/C=C\CCN(C3=O)[C@@H](Cc3ccc(C)cc3)C(=O)N(C)CC(=O)N[C@@H](CCc3cc(F)c(C(F)(F)F)c(F)c3)C(=O)N2C1 [PP2396] |  |  | A (a compound having 10 or more and less than 20 is denoted as A) | A (a compound having 10 or more and less than 20 is denoted as A) | 
 | 27.8 | 0.26 | CCO[C@@H]1C[C@H]2C(=O)NC3(CCC3)C(=O)N(C)[C@@H](C3CCCC3)C(=O)N(C)[C@H](C(=O)N3CCOCC3)CC(=O)N(C)[C@@H](Cc3cccs3)C(=O)N[C@@H]([C@@H](C)CC)C(=O)N(C)CC(=O)N(C)[C@H]3CCCCCN(C3=O)[C@@H](Cc3ccc(F)cc3)C(=O)N(C)CC(=O)N[C@@H](CCc3cc(F)c(C(F)(F)F)c(F)c3)C(=O)N2C1 [PP1183] |  |  | B (a compound having 3 or more and less than 10 is denoted as B) | B (a compound having 3 or more and less than 10 is denoted as B) | 
 | 95.2 |  | CCC(CC)[C@H]1C(=O)N(C)[C@H](C(=O)N(C)C)CC(=O)N(C)[C@@H](COC)C(=O)N[C@@H]([C@@H](C)CC)C(=O)N(C2CC2)CC(=O)N(C)[C@H]2C/C=C\CCN(C2=O)[C@@H](CC2CCC(F)(F)CC2)C(=O)N(C)CC(=O)N[C@@H](CCc2cc(F)c(C(F)(F)F)c(F)c2)C(=O)N2C[C@H](OC3CCCC3)C[C@H]2C(=O)NC2(CC(C)(C)C2)C(=O)N1C [PP2627] |  |  |  |  | Kd [1, 6]: 2.6 nM; NRAS/KRAS (ratio of KD value with respect to GDP-bound NRAS wild-type protein to KD value with respect to KRAS) [2]: A (a compound having 10 or more and less than 20 is denoted as A); HRAS/KRAS (ratio of KD value with respect to GDP-bound HRAS wild-type protein to KD value with respect to KRAS) [3]: A (a compound having 10 or more and less than 20 is denoted as A)
0.35 | 12.2 |  | CCO[C@@H]1C[C@H]2C(=O)NC3(CCC3)C(=O)N(C)[C@@H](C3CCCC3)C(=O)N(C)[C@H](C(=O)N3CCOCC3)CC(=O)N(C)[C@@H](CC(C)C)C(=O)N[C@@H]([C@@H](C)CC)C(=O)N3CC[C@H]3C(=O)N(C)[C@H]3CC[C@@H](C)CN(C3=O)[C@@H](Cc3ccc(C(F)(F)F)cc3)C(=O)N(C)CC(=O)N[C@@H](CCc3cc(F)c(C(F)(F)F)c(F)c3)C(=O)N2C1 [PP1373] | B (a compound having 3 or more and less than 10 is denoted as B) | B (a compound having 3 or more and less than 10 is denoted as B) |  |  | 
 | 8.9 | 0.043 | CCO[C@@H]1C[C@H]2C(=O)NC3(CC(C)(C)C3)C(=O)N(C)[C@@H](C3CCCC3)C(=O)N(C)[C@H](C(=O)N(C)C)CC(=O)N(C)[C@@H](COC)C(=O)N[C@@H]([C@@H](C)CC)C(=O)N(C)CC(=O)N(C)[C@H]3C/C=C\CCN(C3=O)[C@@H](Cc3ccc(C)cc3)C(=O)N(C)CC(=O)N[C@@H](CCc3cc(F)c(C(F)(F)F)c(F)c3)C(=O)N2C1 [PP2391] |  |  | A (a compound having 10 or more and less than 20 is denoted as A) | A (a compound having 10 or more and less than 20 is denoted as A) | 
 | 32.3 | 0.59 | CCO[C@@H]1C[C@H]2C(=O)NC3(CC(C)(C)C3)C(=O)N(C)[C@@H](C(CC)CC)C(=O)N(C)[C@H](C(=O)N(C)C)CC(=O)N(C)[C@@H](COC)C(=O)N[C@@H]([C@@H](C)CC)C(=O)N(C)CC(=O)N(C)[C@H]3C/C=C\CCN(C3=O)[C@@H](CC3CCC(F)(F)CC3)C(=O)N(C)CC(=O)N[C@@H](CCc3ccc(C(F)(F)F)c(Cl)c3)C(=O)N2C1 [PP2444] |  |  | A (a compound having 10 or more and less than 20 is denoted as A) | A (a compound having 10 or more and less than 20 is denoted as A) | 
0.55 | 89.4 |  | CCO[C@@H]1C[C@H]2C(=O)NC3(CCC3)C(=O)N(C)[C@@H](C(CC)CC)C(=O)N(C)[C@H](C(=O)N3CCCC3)CC(=O)N(C)[C@@H](COC)C(=O)N[C@@H]([C@@H](C)CC)C(=O)N(C)CC(=O)N(C)[C@H]3C/C=C\CCN(C3=O)[C@@H](CC3CCCCC3)C(=O)N(C)CC(=O)N[C@@H](CCc3cc(F)c(C(F)(F)F)c(F)c3)C(=O)N2C1 [PP1438] | AA (a compound having 20 or more is denoted as AA) | A (a compound having 10 or more and less than 20 is denoted as A) |  |  | 
 | 67.9 |  | CC[C@H](C)[C@@H]1NC(=O)[C@H](COC)N(C)C(=O)C[C@@H](C(=O)N(C)C)N(C)C(=O)[C@H](C2CCCC2)N(C)C(=O)C2(CC(C)(C)C2)NC(=O)[C@@H]2C[C@@H](OC3CCCC3)CN2C(=O)[C@H](CCc2ccc(Cl)c(Cl)c2)NC(=O)CN(C)C(=O)[C@H](Cc2ccc(C)cc2)N2CC/C=C\C[C@@H](C2=O)N(C)C(=O)CN(C2CC2)C1=O [PP2628] |  |  |  |  | Kd [1, 6]: 0.9 nM; NRAS/KRAS (ratio of KD value with respect to GDP-bound NRAS wild-type protein to KD value with respect to KRAS) [2]: A (a compound having 10 or more and less than 20 is denoted as A); HRAS/KRAS (ratio of KD value with respect to GDP-bound HRAS wild-type protein to KD value with respect to KRAS) [3]: A (a compound having 10 or more and less than 20 is denoted as A)
0.11 | 13.5 |  | CC[C@H](C)[C@@H]1NC(=O)[C@H](CC)N(C)C(=O)C[C@@H](C(=O)N2CCOCC2)N(C)C(=O)[C@H](C2CCCC2)N(C)C(=O)C2(CCC2)NC(=O)[C@@H]2CCCN2C(=O)[C@H](CCc2cc(F)c(C(F)(F)F)c(F)c2)NC(=O)CN(C)C(=O)[C@H](Cc2ccc(C(F)(F)F)cc2)N2C[C@H](C)CC[C@@H](C2=O)N(C)C(=O)CN(C)C1=O [PP1384] | A (a compound having 10 or more and less than 20 is denoted as A) | B (a compound having 3 or more and less than 10 is denoted as B) |  |  | 
0.32 | 34.7 |  | CC[C@H](C)[C@@H]1NC(=O)[C@H](CC)N(C)C(=O)C[C@@H](C(=O)N2CCOCC2)N(C)C(=O)[C@H](C2CCCC2)N(C)C(=O)C2(CCC2)NC(=O)[C@@H]2CCCN2C(=O)[C@H](CCc2cc(F)c(C(F)(F)F)c(F)c2)NC(=O)CN(C)C(=O)[C@H](Cc2ccc(C(F)(F)F)cc2)N2C[C@H](C)[C@H](C)C[C@@H](C2=O)N(C)C(=O)[C@@H]2CCN2C1=O [PP1363] | A (a compound having 10 or more and less than 20 is denoted as A) | B (a compound having 3 or more and less than 10 is denoted as B) |  |  | 
 |  | 0.92 | CCC[C@H]1C(=O)N[C@@H]([C@@H](C)CC)C(=O)N(C)CC(=O)N(CCC)CC(=O)N(CCC)[C@@H](Cc2ccc(C(F)(F)F)cc2)C(=O)N(C)CC(=O)N[C@@H](CCc2ccc(C(F)(F)F)c(Cl)c2)C(=O)N2CCC[C@H]2C(=O)NC2(CCC2)C(=O)N(C)[C@@H](C2CCCC2)C(=O)N(C)[C@H](C(=O)N2CCOCC2)CC(=O)N1C [PP1949] ([NMeNva]I[Sar][NPrGly][NPrPhe(4-CF3)][Sar][hPhe(3-Cl-4-CF3)]P[Ac4c][NMeGly(cPent)][NMeD]-Morpholide; lactam N-11) |  |  |  |  | NRAS/KRAS (KD ratio) ([2]; ratio of KD for GDP-bound NRAS wild-type protein to KD for KRAS, SPR): C (A compound having a KD ratio of 0.1 or more and less than 3 is denoted as C); HRAS/KRAS (KD ratio) ([3]; ratio of KD for GDP-bound HRAS wild-type protein to KD for KRAS, SPR): C (A compound having a KD ratio of 0.1 or more and less than 3 is denoted as C); IC50 ([4]; read-out: NCI-H441 IC50, NCI-H441 cell proliferation, 4 days, CellTiter-Glo): 9.3 nM
 | 12.4 |  | CC[C@H](C)[C@@H]1NC(=O)[C@H](COC)N(C)C(=O)C[C@@H](C(=O)N(C)C)N(C)C(=O)[C@H](C2CCCCC2)N(C)C(=O)C2(CC(C)(C)C2)NC(=O)[C@@H]2C[C@@H](OC(C)C)CN2C(=O)[C@H](CCc2cc(F)c(C(F)(F)F)c(F)c2)NC(=O)CN(C)C(=O)[C@H](Cc2ccc(C(F)(F)F)cc2)N2CC/C=C\C[C@@H](C2=O)N(C)C(=O)CN(C)C1=O [PP2654] |  |  |  |  | Kd [1, 6]: 0.12 nM; NRAS/KRAS (ratio of KD value with respect to GDP-bound NRAS wild-type protein to KD value with respect to KRAS) [2]: A (a compound having 10 or more and less than 20 is denoted as A); HRAS/KRAS (ratio of KD value with respect to GDP-bound HRAS wild-type protein to KD value with respect to KRAS) [3]: A (a compound having 10 or more and less than 20 is denoted as A)
